Assay results from patent US5652366A, “DI (1R)-(-)camphosulfonic acid) salt, preparation thereof and use thereof” (Rhone-Poulenc Rorer Pharmaceuticals Inc., priority 1995, dated 1997).
Read-outs that look alike come from different tables or passages of the source.

Experiments:
[1] = test system: myocardial infarct in Sprague-Dawley rats; test: Cardioprotective activity in rat: myocardial infarct size after coronary occlusion/reperfusion; format: in vivo; conditions: control 63 ± 5, preconditioned 15 ± 8
Method: Adult Sprague-Dawley rats are anesthetized with Inactin (100 mg/kg i.p.). The trachea is intubated and positive pressure ventilation is provided via a small animal respirator. Catheters are placed in the femoral vein and artery for administration of compounds of the present invention to be tested, and measurement of blood pressure, respectively. An incision is made on the left side of the thorax over the pectoral muscles, and the muscles are retracted to expose the fourth intercostal space. The chest cavity is opened and the heart is exposed. A length of 4-0 proline suture is placed through the ventricular wall near the left main coronary artery and is used to interrupt blood flow through the cornary artery by tightening a slip-knot. A pulsed-Doppler flow probe (a device which measures blood flow) is placed on the surface of the heart to confirm that the coronary artery has been porperly identified. […]
For preconditioning the heart, the coronary artery is occluded (flow is interrupted) for a period of two minutes. […] Infarct size is determined by slicing the heart from apex to base into four to five slices 1-2 mm thick. […] The tissue slices are placed in a video image analysis system and infarct size is determined by planimetry. The effect of the compound of the present invention tested on myocardial infarct size is assessed and used to quantirate the extent of cardioprotective activity. […]

rat adipocytes = test: In vitro lipolysis assay in rat adipocytes (glycerol production); format: cell-based; conditions: Rattus norvegicus, Adipocyte; for EC50: read-out: EC50 (50% inhibition of glycerol production), unit nM in cell
Method: Adipose tissue is removed from anesthetized rats and rinsed twice in incubation medium (2.09 g sodium bicarbonate and 0.04 g EDTA, disodium salt, in 1 L Krebs buffer). Each rat (300-350 g) yields approximately 4 ml of adipose tissue. The adipose tissue (35 ml) is cut into small pieces with scissors and washed with incubation medium (50 ml). The mixture is poured into the barrel of a 50 ml syringe to which is attached a short piece of clamped tubing instead of a needle. The aqueous phase is allowed to drain. A second wash with incubation medium is passed through the syringe. The tissue is added to 50 ml of collagenase solution (collagenase(90 mg), bovine serum albumin (BSA) (500 mg), and 0.1 M calcium chloride solution (1 ml), in incubation medium (50 ml)) in a 1 L bottle. The mixture is shaken in an environmental at 37° C. for about 60 minutes under an atmosphere of 95% oxygen/5% carbon dioxide to effect digestion of the tissue. The dispersed cells are poured through 2 layers of cheese cloth into a 100 ml plastic beaker. The undigested clumps in the cloth are rinsed once with incubation medium (20 ml). The cells in the beaker are centrifuged in 2 plastic tubes for 30 seconds at room temperature at 300 rpm. The aqueous phase is aspirated from beneath the loosely packed layer of floating fat cells and discarded. The adipocytes are gently poured into a 250 ml plastic beaker containing 100 ml of rinse solution (1 g BSA per 100 ml incubation medium). After gentle stirring the centrifugation step is repeated. Another wash with rinse solution follows. The cells are pooled and their volume is estimated with a graduated cylinder. The adipocytes are diluted in twice their volume of assay buffer (incubation medium (120 ml), BSA (1.2 g), pyruvic acid (13 mg)).
The assay is performed in 20 ml plastic scintillation vials and the total assay volume is 4.2 ml. Assay buffer (2.5 ml), diluted adipocytes (1.5 ml), and a solution of the compound to be tested (12.3 μL) adenosine agonist (12.3 μl; varying concentration) is incubated in the environmental shaker for 15 minutes, then the reaction is started with norepinephrine solution (41.2 μL) (10 nM, in a carrier solution containing water (100 ml), BSA (4 mg), and 0.1 M EDTA (20 I. LL))and adenosine deaminase (1 μg/ml, 41.2 μl). After sixty minutes in the shaker the reaction is terminated by putting the vials on ice. […] The hard lipid layer is removed by aspiration and the aqueous layer is assayed for glycerol (400 μl of sample). The positive control is done in the absence of any adenosine agonist, substituting water in place of the solution to be tested.

A2 receptor = conditions: relative to NECA; cited from earlier work
A1 and A2 receptors = conditions: reported developments; cited from earlier work
swine coronary arteries = test: In vitro vasorelaxation in isolated swine coronary arteries (PGF2α-contracted rings); format: cell-based; conditions: Sus scrofa; 50% reduction in tension, 3 μM PGF2α; Table II; read-out: Vasorelaxation in Swine Coronary Artery/IC50
Method: Swine coronary arteries were obtained from a local slaughter house, dissected carefully and cleaned of fat, blood and adhering tissue. Rings approximately 2-3 mm wide were cut and transferred to water-jacketed tissue baths (10 ml) filled with warm (37° C.), oxygenated (O2 /CO2 :95%/5%) Krebs-Henseleit buffer and mounted on L-shaped hooks between stainless steel rods and a force transducer. […] Rings were equilibrated for 90 minutes with frequent buffer changes at a resting tension of 5 g In order to assure optimal tension development, arterial rings were primed twice with 36 mM KCl and once with 10 μm. PGF2α, before being exposed to 3 μM PGF2α. […] Tension achieved with 3 μM PGF2α was considered .equivalent to 100%; all other values were expressed as a percentage of that maximum.

A2 adenosine receptor = A2 adenosine receptor (Rattus norvegicus, UniProt P30543); test: biochemical; conditions: rat brain striatum membranes, 3H-CGS 21680; Table II; read-out: Adenosine Receptor Binding Activity/IC50 (nM) A2
A1 adenosine receptor = target: T1, A1 adenosine receptor (Rattus norvegicus, UniProt P25099); test: biochemical; conditions: rat whole brain membranes, 3H-CHA; Table II; read-out: Adenosine Receptor Binding Activity/IC50 (nM) A1
T1 sequence (P25099 1-326): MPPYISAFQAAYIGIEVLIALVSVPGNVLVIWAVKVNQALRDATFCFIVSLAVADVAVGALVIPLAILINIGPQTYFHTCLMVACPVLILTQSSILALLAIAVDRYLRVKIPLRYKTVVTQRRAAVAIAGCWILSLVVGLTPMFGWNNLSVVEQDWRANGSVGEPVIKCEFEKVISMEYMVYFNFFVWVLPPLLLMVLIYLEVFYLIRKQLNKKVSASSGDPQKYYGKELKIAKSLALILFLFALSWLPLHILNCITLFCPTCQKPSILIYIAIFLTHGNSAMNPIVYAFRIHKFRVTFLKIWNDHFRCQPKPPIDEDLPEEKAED
Method: Non-specific binding was assessed in the presence of 1 mM theophylline.
The assays were run in glass test tubes in duplicate at 25° C. Once the membranes were added, the tubes were vortexed and incubated at 25° C. for 60 minutes (A1 assay) or 90 minutes (A2 assay) on a rotary shaker. The assay tubes were vortexed halfway through the incubation and again near the end. The assays were terminated by rapid filtration through 2.4 cm GF/B filters using a Brandel Cell Harvestor. The test tubes were washed three times with cold 50 mM tris-HCl (pH 7.7 or 7.4), with filtration being completed within 15 seconds. The damp filter circles were placed in glass scintillation vials filled with 10 ml of Aquasol II (New England Nuclear). The vials were allowed to shake overnight on a rotary shaker and were placed into a liquid scintillation analyzer for two minute counts. IC50 values for receptor binding, i.e. the concentration at which a compound of the invention displaced the radiolabeled standard, were obtained using a curve-fitting computer program (RS/1, Bolt, Beranek and Newman, Boston, Mass.).

[2] = test system: spontaneously hypertensive rat (SHR); test: Oral antihypertensive activity in conscious spontaneously hypertensive rat (SHR); format: in vivo; conditions: for SHR MAP/%: D = decrease; for SHR HR/%: I = increase
Method: The oral antihypertensive activity of compounds of the invention were examined in conscious spontaneously hypertensive rats. The rats were anesthetized with sodium pentabarbatol (50 mg/kg i.p.). A telemetry transducer was implanted into the rats abdomen via midline incision. The cannula of the transducer was inserted into the abdomenal aorta to allow direct measurement of arterial pressure in the conscious SHR. The transducer was secured to the abdomenal wall. After recovery from surgery (minimum of seven days), the SHR were placed on a receiver plate and the transducer/transmitter was activated. Systolic, diastolic and mean arterial pressure and heart rate were recorded for 1.5 hours in the unrestrained conscious rat to establish a stable baseline. Each rat then received a single dose of the compound of the invention to be tested, or vehicle, and changes in arterial pressure and heart rate were monitored for 20 hours and recorded.

[3] = test system: normotensive anesthetized rat; test: In vivo mean arterial pressure and heart rate in normotensive anesthetized rat; conditions: iv
Method: Normotensive rats were anesthetized with sodium pentobarbital (50 mg/kg, j.p.) and placed on a heated surgical table. Cannulas were inserted into the femoral artery and […] to allow the measurement of arterial pressure and to facilitate the intravenous administration of test compounds. The animals was allowed to equilibrate for 10 minutes after surgery. Mean arterial pressure was continuously measured and recorded and heart rate was monitored using the arterial pressure pulse to trigger a cardiotachometer. After baseline parameters were established and recorded, increasing doses (1, 3, 10, 30, 100, 300 and 1000 μg/kg) of the compound of the invention to be tested were administered intravenously. Maximal changes in the cardiovascular parameters were observed after each dose of the adenosine agonist. Only one compound was administered per rat.

Chain of A2 adenosine receptor (P30543 whole entry): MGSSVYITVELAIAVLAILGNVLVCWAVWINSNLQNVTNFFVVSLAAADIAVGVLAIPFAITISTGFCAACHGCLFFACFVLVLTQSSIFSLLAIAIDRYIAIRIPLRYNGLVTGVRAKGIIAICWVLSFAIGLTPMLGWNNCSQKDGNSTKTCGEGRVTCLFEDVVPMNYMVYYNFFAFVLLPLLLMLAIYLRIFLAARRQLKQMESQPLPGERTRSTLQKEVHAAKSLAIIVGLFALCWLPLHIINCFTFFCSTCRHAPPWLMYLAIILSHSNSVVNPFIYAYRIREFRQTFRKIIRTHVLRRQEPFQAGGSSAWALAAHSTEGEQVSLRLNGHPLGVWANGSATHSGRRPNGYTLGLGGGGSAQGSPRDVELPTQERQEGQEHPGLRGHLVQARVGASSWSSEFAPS

In the case of CCNC(=O)[C@H]1C[C@@H](n2cnc3c(N[C@H](CC)Cc4sccc4Cl)ccnc32)[C@H](O)[C@@H]1O (single isomer, unassigned) [Example 39, [1S-[1α,2β,3β,4α(S*)]]-4-[7-[[2-(3-chloro-2-thienyl)-1-ethylethyl]amino]-3 H-imidazo[4,5-b]pyridin-3-yl]-N-ethyl-2,3-dihydroxycyclopentane-carboxamide], the “% Risk Area Infarcted” value ([1]; Compound High: i.v. bolus 10 μg/kg, then 1 μg/kg/minute from 30 minutes prior to occlusion to 2 hours after reperfusion) is reported as 18 ± 5%, the “% Risk Area Infarcted” value ([1]; Compound Low: i.v. bolus 1 μg/kg, then 0.1 μg/kg/minute for 30 minutes prior to occlusion) is reported as 23 ± 9% and the EC50 (rat adipocytes) is reported as 5.4 nM.
For Nc1nc(Nc2ccccc2)nc2c1ncn2[C@@H]1O[C@H](CO)[C@@H](O)[C@H]1O [CV-1808], the “fold less potent than NECA in affinity for the A2 receptor” value (A2 receptor) is listed as 10 fold and the A2/A1 ratio (A1 and A2 receptors) is listed as 0.19.
With CCNC(=O)[C@H]1C[C@@H](n2cnc3c(N[C@H](C)Cc4ccc(Cl)s4)ncnc32)[C@H](O)[C@@H]1O [Example 6, (-)-[2S-[2α,3α-dihydroxy-4-β-[N6-[2-(5-chloro-2-thienyl)-(1R)-1-methylethyl]amino]-9-adenyl]cyclopentane]-1-β-N-ethylcarboxamide] the EC50 (swine coronary arteries) was 21 nM, the IC50 (A2 adenosine receptor) was 12.9 nM and the EC50 (rat adipocytes) was 0.76 nM. The IC50 (A1 adenosine receptor) was 2.69 nM, the “SHR MAP/%” value ([2]; 1 mg/kg) was 18% and the “SHR HR/%” value ([2]; 1 mg/kg) was 7%.
With CCNC(=O)[C@H]1C[C@@H](n2cnc3c(NCCc4cccs4)ncnc32)[C@H](O)[C@@H]1O [Example 26, (-)-N^6-[(thiophen-2"-yl)ethan-2-yl]carbocyclic adenosine-5'-N-ethyl carboxamide] the ED25 ([3]; dose lowering heart rate by 25%, read-out: Blood Press/Heart Rate Anesthetized Rat HR/ED25) was over 30 µg/kg, the ED25 ([3]; dose lowering mean arterial pressure by 25%, read-out: Blood Press/Heart Rate Anesthetized Rat MAP/ED25) was 4 µg/kg and the EC50 (swine coronary arteries) was 82 nM. For the same compound, the IC50 (A2 adenosine receptor) was 63.1 nM, the EC50 (rat adipocytes) was 89 nM and the inhibition at 1 µM (rat adipocytes; 1 μM, versus positive control, read-out: % Inhibition of glycerol production) was 96%. The IC50 (A1 adenosine receptor) was 87.1 nM, the “SHR MAP/%” value ([2]; 2.5 mg/kg) was 41% and the “SHR HR/%” value ([2]; 2.5 mg/kg) was 3%.
